{"source": "patent US20230364242A1", "about": "“WATER-SOLUBLE COMPLEX CONTAINING BETA BLOCKER AND LECITHIN” (NISSAN CHEMICAL CORPORATION, priority 2020, published 2023)", "origin": "cited, not measured here", "conditions": "literature reports", "data": [{"smiles": "CC(C)NCC(O)COc1cccc2ccccc12", "note": "(stereo not shown) [propranolol]", "values": [{"measurement": "photolysis", "value": "decomposition particularly proceeds in an aqueous solution"}]}]}
